Read-outs that look alike come from different tables or passages of the source.
Columns and labels:
[1] = test system: MiaPaCa-2 cells; assay: Oxygen consumption rate in intact cells, Seahorse XF96; format: cell-based, human
Description: (§1) Respiratory enzyme activity in intact and permeabilized cells. The mitochondrial function in intact and permeabilized pancreatic cancer cells was measured using a Seahorse XF96 Extracellular Flux Analyzer (Seahorse Bioscience, North Billerica, Mass., USA). Unless specified otherwise, assays in intact cells were performed as previously described. Measurement of mitochondrial respiratory complexes in permeabilized cells was performed according to the manufacturer's instructions (Seahorse Bioscience). Briefly, intact cells were permeabilized using 1 nM Plasma Membrane Permeabilizer (PMP, Seahorse Bioscience) immediately before oxygen consumption rate (OCR) measurement by XF96. The oxygen consumption derived from mitochondrial complex I or complex II activity was measured by providing different substrates to mitochondria, e.g., pyruvate/malate for complex I and succinate for complex II activity. Rotenone, malonate and antimycin A were used as specific inhibitors of mitochondrial complex I, II and III activities, respectively.
Effects of Met and Mito-Met analogs on mitochondrial bioenergetics in MiaPaCa-2 cells. The oxygen consumption rate (OCR) and the extracellular acidification rate (ECAR) were measured as a readout of mitochondrial function and glycolysis using a Seahorse Bioscience XF96 extracellular flux analyzer. We compared the immediate OCR changes in response to different concentrations (e.g., IC50 or higher values determined by clonogenic assay) of Met, Mito-Met2, Mito-Met6, Mito-Met10, and phenformin (FIG. 13A).
Next we monitored the mitochondrial OCR changes in MiaPaCa-2 cells after 24 h treatment with Met, Mito-Met analogs, and phenformin followed by a washout of the treatments and return to fresh cell culture media.

[2] = test system: MiaPaCa-2 cells; assay: Sytox Green cytotoxicity assay; format: cell-based; settings: 100 μM, 24 h
Description: Cytotoxicity assay. To determine the cytotoxicity of Mito-Met analogs and other TPP^+-conjugated to a long chain aliphatic hydrocarbon, we used the Sytox assay as described previously. MiaPaCa-2 cells were treated for 24 h, and dead cells were monitored in the presence of 200 nM Sytox Green (Invitrogen). The Sytox method labels the nuclei of dead cells yielding green fluorescence. Fluorescence intensities from the dead cells in 96-well plate were acquired in real time every 15 min after 4 h using a plate reader (BMG Labtech, Inc.) equipped with an atmosphere controller set at 37° C. and 5% CO2:95% air, using a fluorescence detection with 485 nm (excitation) and 535 nm (emission). To measure the total cell number, all of the samples in each treatment group were permeabilized by adding Triton X 100 (0.065%) in the presence of Sytox Green for 3 h, and maximal fluorescence intensities were taken as 100%. Data are represented as a percentage of dead cells after normalization to total cell number for each group.
Induction of cell death was monitored by Sytox Green staining, as shown previously. MiaPaCa-2 cells were treated with Mito-Met10 (100 μM), Mito-CP (100 μM), or Met (30 mM) and other controls for 24 h and cell death was measured in real time.

[3] = test system: HaCaT; assay: IncuCyte cell confluence assay, keratinocytes; format: cell-based
Description: (§2) IncuCyte Analyzer-real time measurement of cell proliferation. The cell proliferation was measured using a label-free, noninvasive cellular confluence assay by IncuCyte Live-Cell Imaging Systems (Essen Bioscience, Ann Arbor, Mich., USA; IncuCyte FLR). This system enables collection of live cell images at 2 h intervals over several days. The IncuCyte Analyzer provides real-time cellular confluence data based on segmentation of high-definition phase-contrast images. The cell proliferation is expressed as an increase in percentage of cell confluence.

[4] = target: mitochondrial complex I (Homo sapiens, UniProt O75251+O75306+P03886); assay: Complex I oxygen consumption (pyruvate/malate) in permeabilized cells, Seahorse XF96; format: cell-based; design: IC50, complex I oxygen consumption; other: permeabilized MiaPaCa-2, added acutely; settings: permeabilized MiaPaCa-2, added acutely
Description: as §1
The oxygen consumption rate was measured using the permeabilized MiaPaCa-2 cells in MAS buffer supplemented with pyruvate. The use of permeabilized cells avoids differences in cellular uptake of compounds. […] We tested the effect of pretreating cells with Mito-Met10 or Met using the permeabilized model. MiaPaCa-2 cells were treated with Met and Mito-Met10 for 24 h and the oxygen consumption studies were performed in these cells after permeabilization.

[5] = test system: MCF-10A; assay: IncuCyte cell confluence assay, nonmalignant breast epithelial cells; format: cell-based
Description: as §2

[6] = test system: MiaPaCa-2 cells; assay: Intracellular uptake by LC-MS/MS; settings: MiaPaCa-2, 1 μM, 1 h
Description: Cells were grown on 10 cm dishes and treated with the compounds for 24 h in full media.
Next we investigated the relative uptake of different Mito-Met analogs (Mito-Met2, Mito-Met6, and Mito-Met10) and phenformin in MiaPaCa-2 cells (FIG. 12D). Cells were treated with respective Mito-Met analog (1 μM) for 1 h. Cells were lysed after washing and analyzed for Mito-Met analog by LC-MS.

[7] = test system: MiaPaCa-2 cells; assay: Clonogenic (colony formation) assay; format: cell-based, human
Description: Clonogenic assay. […] The plates were kept within the incubator and media changed every 3-4 days until the control cells formed sufficiently large clones. The cell survival fractions were calculated as previously described.
MiaPaCa-2 cells were treated with a range of concentrations as shown (FIG. 10C), and the number of colonies formed were counted.

[8] = test system: MiaPaCa-2 cells; assay: Radiosensitization, clonogenic survival after X-radiation; format: cell-based, human; settings: 24 h pretreatment (1 mM Met, 1 μM Mito-Met) before X-radiation
Description: MiaPaCa2 cells (1000 cells/well) were cultured in quadruplicate overnight in 96-well plates and changed to fresh medium.
Radiation experiments. […] The cells were then treated with X-radiation at a dose of 0, 2, 4, and 6 Gy. The control cells were treated with the same concentration of vehicle (0.1% DMSO) where appropriate. After irradiation, cells were suspended and seeded at various densities (100-8,000 cells per well) in 6-well plates for clonogenic assay as described above. The plates were kept within the incubator and media changed every 3-4 days for 2 weeks. Wells with 10-50 sufficiently large clones were chosen for calculating the cell survival fractions.
Effect of Mito-Met and Met on PDAC radiosensitivity. Both control cells and cells were pretreated for 24 h with 1 mM Met or Mito-Met (1 μM) prior to X-radiation. Cell survival was measured by a clonogenic assay.

[9] = mouse, in vivo
Description: In an initial proof-of-concept experiment, syngeneic KPC cells expressing Firefly luciferase (FC1242-luc) were orthotopically implanted to the pancreas of C57BL/6 mice and tumor growth monitored using bioluminescence imaging (FIG. 15F). Mice orthotopically autografted with FC1242-luc cells were treated daily with 1 mg/kg or 150 mg/kg Met, or 1 mg/kg Mito-Met. […] Serum from these animals was collected, and hepatic and kidney toxicity tested using standard AST, ALT, AP, and BUN assays, respectively.

Sequence of mitochondrial complex I (P03886 whole entry): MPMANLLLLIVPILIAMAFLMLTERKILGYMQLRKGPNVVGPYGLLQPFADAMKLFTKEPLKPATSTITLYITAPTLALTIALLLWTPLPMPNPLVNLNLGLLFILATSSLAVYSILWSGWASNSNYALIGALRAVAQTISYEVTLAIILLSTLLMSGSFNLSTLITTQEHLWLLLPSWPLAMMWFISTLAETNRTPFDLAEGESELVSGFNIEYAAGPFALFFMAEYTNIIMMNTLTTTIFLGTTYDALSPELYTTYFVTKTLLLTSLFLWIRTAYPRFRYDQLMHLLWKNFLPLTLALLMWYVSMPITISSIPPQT
Sequence of mitochondrial complex I (O75251 39-213): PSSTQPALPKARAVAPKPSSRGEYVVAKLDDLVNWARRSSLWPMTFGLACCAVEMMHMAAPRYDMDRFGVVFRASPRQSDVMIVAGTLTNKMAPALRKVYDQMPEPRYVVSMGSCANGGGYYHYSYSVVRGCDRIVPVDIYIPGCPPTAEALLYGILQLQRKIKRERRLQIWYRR
Sequence of mitochondrial complex I (P03897 whole entry, further chain): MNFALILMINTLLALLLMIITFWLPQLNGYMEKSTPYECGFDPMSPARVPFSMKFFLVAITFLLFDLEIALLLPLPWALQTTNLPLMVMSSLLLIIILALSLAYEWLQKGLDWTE
Sequence of mitochondrial complex I (O75306 34-463): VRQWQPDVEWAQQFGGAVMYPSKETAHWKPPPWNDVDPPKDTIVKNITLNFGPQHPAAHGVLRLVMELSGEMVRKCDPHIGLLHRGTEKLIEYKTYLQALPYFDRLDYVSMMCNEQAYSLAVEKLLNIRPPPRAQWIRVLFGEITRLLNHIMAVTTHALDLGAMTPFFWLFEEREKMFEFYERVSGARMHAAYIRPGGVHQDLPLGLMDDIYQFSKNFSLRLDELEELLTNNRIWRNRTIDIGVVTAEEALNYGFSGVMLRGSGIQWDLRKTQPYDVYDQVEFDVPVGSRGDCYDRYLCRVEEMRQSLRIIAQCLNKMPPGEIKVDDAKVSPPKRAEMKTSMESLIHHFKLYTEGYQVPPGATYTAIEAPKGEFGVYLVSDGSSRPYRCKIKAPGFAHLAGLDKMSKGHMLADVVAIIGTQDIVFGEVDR
Sequence of mitochondrial complex I (O75489 37-264, further chain): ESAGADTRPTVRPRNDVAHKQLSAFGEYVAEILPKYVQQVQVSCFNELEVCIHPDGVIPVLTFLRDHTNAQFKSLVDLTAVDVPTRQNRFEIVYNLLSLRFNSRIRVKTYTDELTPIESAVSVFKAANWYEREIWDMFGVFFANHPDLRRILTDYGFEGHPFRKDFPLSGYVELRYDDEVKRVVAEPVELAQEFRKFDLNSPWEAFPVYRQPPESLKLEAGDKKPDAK

Structure (SMILES): Br.N=C(N)NC(=N)NCC[P+](c1ccccc1)(c1ccccc1)c1ccccc1 [Mito-Met2]
- concentration at which OCR was inhibited ([1]; 24 h treatment, washout): 25 µM

Structure (SMILES): CC1(C)CC(OCCCCC[P+](c2ccccc2)(c2ccccc2)c2ccccc2)CC(C)(C)N1[O].[Br-] [Mito-Tempol, reference compound]
- cell death, Sytox Green staining [2]: considerably more cytotoxic

Structure (SMILES): [H]/N=C(/N)N/C(=N/[H])NCCc1ccccc1 [phenformin, reference compound]
- concentration inhibiting OCR to the same extent as Met ([1]; immediate): ten-fold lower concentration

Structure (SMILES): CN(C)C(=N)N=C(N)N [Metformin, metformin, reference compound]
- effect on cell confluence [3]: not significantly affected
- concentration decreasing oxygen consumption ([1]; OCR measured immediately after addition): 1 to 10 mM
- concentration at which OCR was inhibited [4]: 3,000 μM
- effect on cell confluence [5]: not significantly affected
- cellular uptake compared with phenformin [6]: considerably lower than phenformin
- colony formation ([7]; 3 mM, 24 h): Almost no colony formation
- IC50 ([7]; read-out: IC50, colony formation / survival fraction, MiaPaCa-2, 24 h treatment): 1300 µM
- radiosensitization [8]: increased radiosensitization
- Kidney BUN ([9]; 1 mg/kg): 30 ± 7 mg/dL
- Liver ALT ([9]; 1 mg/kg): 35 ± 15 IU/L
- Liver AST ([9]; 1 mg/kg): 189 ± 117 IU/L
- Kidney BUN ([9]; 150 mg/kg): 22 ± 2 mg/dL
- Liver ALT ([9]; 150 mg/kg): 19 ± 3 IU/L
- Liver AST ([9]; 150 mg/kg): 127 ± 24 IU/L
